Source: US6737383B1, “Herbicidal oxadiazolidines” (priority 1999, dated 2004)

Assays:
[1] = tested on: bedstraw; assay: Test B pre/postemergence bedstraw; format: in vivo, Galium aparine
How it was run: (§1)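 Herbicidal effect was estimated by eye on a ten-point control scale after plants spent twelve to sixteen days in a greenhouse following soil or foliar treatment. Foliar sprays targeted plants at one to four leaves; all doses were formulated in a non-phytotoxic solvent with surfactant.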

[2] = tested on: blackgrass; assay: Test B pre/postemergence blackgrass; format: in vivo, Alopecurus myosuroides
How it was run: as §1

[3] = tested on: surinam grass; assay: Test B pre/postemergence surinam grass; format: in vivo, Brachiaria decumbens
How it was run: as §1

[4] = tested on: corn; assay: Test B pre/postemergence corn; format: in vivo, Zea mays; settings: for Corn plant response rating: scale of 0 to 10 where 0 is no effect and 10 is complete control
How it was run: as §1

[5] = tested on: crabgrass; assay: Test B pre/postemergence crabgrass; format: in vivo, Digitaria sanguinalis; settings: for Crabgrass plant response rating: scale of 0 to 10 where 0 is no effect and 10 is complete control
How it was run: as §1

[6] = tested on: pigweed; assay: Test B pre/postemergence pigweed; format: in vivo, Amaranthus retroflexus; settings: for Redroot pigweed plant response rating: scale of 0 to 10 where 0 is no effect and 10 is complete control
How it was run: as §1

[7] = tested on: rape; assay: Test B pre/postemergence rape; format: in vivo, Brassica napus; settings: for Rape plant response rating: scale of 0 to 10 where 0 is no effect and 10 is complete control
How it was run: as §1

[8] = tested on: soybean; assay: Test B pre/postemergence soybean; format: in vivo, Glycine max; settings: for Soybean plant response rating: scale of 0 to 10 where 0 is no effect and 10 is complete control
How it was run: as §1

[9] = tested on: sugar beet; assay: Test B pre/postemergence sugar beet; format: in vivo, Beta vulgaris; settings: for Sugarbeets plant response rating: scale of 0 to 10 where 0 is no effect and 10 is complete control
How it was run: as §1

[10] = tested on: velvetleaf; assay: Test B pre/postemergence velvetleaf; format: in vivo, Abutilon theophrasti; settings: for Velvetleaf plant response rating: scale of 0 to 10 where 0 is no effect and 10 is complete control
How it was run: as §1

[11] = tested on: wheat; assay: Test B pre/postemergence wheat; format: in vivo, Triticum aestivum; settings: for Wheat plant response rating: scale of 0 to 10 where 0 is no effect and 10 is complete control
How it was run: as §1

[12] = tested on: wild oat; assay: Test B pre/postemergence wild oat; format: in vivo, Avena fatua; settings: for Wild oats plant response rating: scale of 0 to 10 where 0 is no effect and 10 is complete control
How it was run: as §1

[13] = tested on: purple nutsedge; assay: Test B pre/postemergence purple nutsedge; format: in vivo, Cyperus rotundus; settings: for Nutsedge plant response rating: scale of 0 to 10 where 0 is no effect and 10 is complete control
How it was run: as §1

[14] = tested on: rice; assay: Test B flood test rice; format: in vivo, Oryza sativa
How it was run: (§2)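 Each value is a visual injury score relative to controls, with 10 meaning complete control and 0 no effect. Evaluation took place twelve to sixteen days after the 2-leaf-stage plants were treated and kept in the greenhouse.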

[15] = tested on: smallflower flatsedge; assay: Test B flood test smallflower flatsedge; format: in vivo, Cyperus difformis
How it was run: as §2

[16] = tested on: duck salad; assay: Test B flood test duck salad; format: in vivo, Heteranthera limosa
How it was run: as §2

[17] = Postemergence, Rate 125 g/ha, scale 0 to 10, 0 is no effect, 10 is complete control
[18] = Preemergence, Rate 62 g/ha, scale of 0 to 10 where 0 is no effect and 10 is complete control
[19] = Preemergence, Rate 250 g/ha, scale of 0 to 10 where 0 is no effect and 10 is complete control
[20] = Preemergence, Rate 500 g/ha, scale of 0 to 10 where 0 is no effect and 10 is complete control
[21] = Rate 62 g/ha, Postemergence, scale of 0 to 10 where 0 is no effect and 10 is complete control
[22] = Rate 250 g/ha, Postemergence, scale of 0 to 10 where 0 is no effect and 10 is complete control
[23] = Rate 500 g/ha, Postemergence, scale 0 to 10, 0 no effect, 10 complete control
[24] = Rate 62 g/ha, headed Pre-emergence (flood test species), scale 0 to 10 (0 no effect, 10 complete control)
[25] = Rate 125 g/ha, Pre-emergence, flood test species, scale 0 to 10 where 0 is no effect and 10 is complete control
[26] = Rate 250 g/ha, Pre-emergence, flood-test species, scale 0 to 10, 0 is no effect, 10 is complete control
[27] = Rate 500 g/ha, Pre-emergence, flood test species, scale 0 to 10 (0 no effect, 10 complete control)

CC(C)N(C(=O)n1oc(=O)n(C2CCCCCC2)c1=O)c1ccc(Cl)cc1 [Compound 339]
6: Plant response rating, Redroot pigweed [6, 23]
3: Blackgrass plant response rating [2, 20] | Ducksalad plant response rating [16, 27]
7: Plant response rating, Bedstraw [1, 22]
5: Crabgrass plant response rating ([5]; Preemergence, Rate 500 g/ha) | Plant response rating, Rape [7, 23]
0: Bedstraw plant response rating [1, 18] | Bedstraw plant response rating (0 to 10 scale) ([1]; Preemergence, Rate 125 g/ha) | Bedstraw plant response rating [1, 19] | Bedstraw plant response rating [1, 20] | Bedstraw plant response rating [1, 21] | Plant response rating, Blackgrass [2, 17] | Blackgrass plant response rating [2, 18] | Blackgrass plant response rating (0 to 10 scale) ([2]; Preemergence, Rate 125 g/ha) | Blackgrass plant response rating [2, 21] | Plant response rating, Blackgrass [2, 22] | Plant response rating, B. signalgrass [3, 17] | B. signalgrass plant response rating [3, 18] | B. signalgrass plant response rating (0 to 10 scale, 0 is no effect, 10 is complete control) ([3]; Preemergence, Rate 125 g/ha) | B. signalgrass plant response rating [3, 19] | B. signalgrass plant response rating [3, 20] | B. signalgrass plant response rating [3, 21] | Plant response rating, B. signalgrass [3, 22] | Plant response rating, B. signalgrass [3, 23] | Plant response rating, Corn [4, 17] | Corn plant response rating ([4]; Preemergence, Rate 62 g/ha) | Corn plant response rating (0 to 10 scale) ([4]; Preemergence, Rate 125 g/ha) | Corn plant response rating ([4]; Preemergence, Rate 250 g/ha) | Corn plant response rating ([4]; Preemergence, Rate 500 g/ha) | Corn plant response rating ([4]; Rate 62 g/ha, Postemergence) | Plant response rating, Corn [4, 23] | Plant response rating, Crabgrass [5, 17] | Crabgrass plant response rating ([5]; Preemergence, Rate 62 g/ha) | Crabgrass plant response rating (0 to 10 scale) ([5]; Preemergence, Rate 125 g/ha) | Crabgrass plant response rating ([5]; Rate 62 g/ha, Postemergence) | Redroot pigweed plant response rating ([6]; Preemergence, Rate 62 g/ha) | Redroot pigweed plant response rating (0 to 10 scale) ([6]; Preemergence, Rate 125 g/ha) | Redroot pigweed plant response rating ([6]; Preemergence, Rate 250 g/ha) | Redroot pigweed plant response rating ([6]; Preemergence, Rate 500 g/ha) | Redroot pigweed plant response rating ([6]; Rate 62 g/ha, Postemergence) | Rape plant response rating ([7]; Preemergence, Rate 62 g/ha) | Rape plant response rating (0 to 10 scale) ([7]; Preemergence, Rate 125 g/ha) | Rape plant response rating ([7]; Preemergence, Rate 250 g/ha) | Rape plant response rating ([7]; Preemergence, Rate 500 g/ha) | Rape plant response rating ([7]; Rate 62 g/ha, Postemergence) | Soybean plant response rating ([8]; Preemergence, Rate 62 g/ha) | Soybean plant response rating (0 to 10 scale) ([8]; Preemergence, Rate 125 g/ha) | Soybean plant response rating ([8]; Preemergence, Rate 250 g/ha) | Soybean plant response rating ([8]; Preemergence, Rate 500 g/ha) | Plant response rating, Sugarbeets [9, 17] | Sugarbeets plant response rating ([9]; Preemergence, Rate 62 g/ha) | Sugarbeets plant response rating (0 to 10 scale) ([9]; Preemergence, Rate 125 g/ha) | Sugarbeets plant response rating ([9]; Preemergence, Rate 250 g/ha) | Sugarbeets plant response rating ([9]; Preemergence, Rate 500 g/ha) | Sugarbeets plant response rating ([9]; Rate 62 g/ha, Postemergence) | Plant response rating, Sugarbeets [9, 23] | Plant response rating, Velvetleaf [10, 17] | Velvetleaf plant response rating ([10]; Preemergence, Rate 62 g/ha) | Velvetleaf plant response rating (0 to 10 scale) ([10]; Preemergence, Rate 125 g/ha) | Velvetleaf plant response rating ([10]; Preemergence, Rate 250 g/ha) | Velvetleaf plant response rating ([10]; Preemergence, Rate 500 g/ha) | Velvetleaf plant response rating ([10]; Rate 62 g/ha, Postemergence) | Plant response rating, Velvetleaf [10, 23] | Plant response rating, Wheat [11, 17] | Wheat plant response rating ([11]; Preemergence, Rate 62 g/ha) | Wheat plant response rating (0 to 10 scale) ([11]; Preemergence, Rate 125 g/ha) | Wheat plant response rating ([11]; Preemergence, Rate 250 g/ha) | Wheat plant response rating ([11]; Preemergence, Rate 500 g/ha) | Wheat plant response rating ([11]; Rate 62 g/ha, Postemergence) | Plant response rating, Wheat [11, 23] | Plant response rating, Wild oats [12, 17] | Wild oats plant response rating ([12]; Preemergence, Rate 62 g/ha) | Wild oats plant response rating (0 to 10 scale) ([12]; Preemergence, Rate 125 g/ha) | Wild oats plant response rating ([12]; Preemergence, Rate 250 g/ha) | Wild oats plant response rating ([12]; Preemergence, Rate 500 g/ha) | Wild oats plant response rating ([12]; Rate 62 g/ha, Postemergence) | Plant response rating, Wild oats [12, 23] | Plant response rating, Nutsedge [13, 17] | Nutsedge plant response rating ([13]; Preemergence, Rate 62 g/ha) | Nutsedge plant response rating (0 to 10 scale) ([13]; Preemergence, Rate 125 g/ha) | Nutsedge plant response rating ([13]; Preemergence, Rate 250 g/ha) | Nutsedge plant response rating ([13]; Preemergence, Rate 500 g/ha) | Nutsedge plant response rating ([13]; Rate 62 g/ha, Postemergence) | Plant response rating, Nutsedge [13, 23] | Rice plant response rating [14, 24] | Rice plant response rating [14, 25] | Rice plant response rating [14, 26] | S. Flatsedge plant response rating [15, 24] | S. Flatsedge plant response rating [15, 25] | S. Flatsedge plant response rating [15, 26] | Ducksalad plant response rating [16, 24] | Ducksalad plant response rating [16, 25] | Ducksalad plant response rating [16, 26]
8: Plant response rating, Bedstraw [1, 23]
2: Plant response rating, Bedstraw [1, 17] | Blackgrass plant response rating [2, 19] | Plant response rating, Blackgrass [2, 23] | Crabgrass plant response rating ([5]; Preemergence, Rate 250 g/ha) | Plant response rating, Crabgrass [5, 23] | Plant response rating, Redroot pigweed [6, 17]
4: Plant response rating, Soybean [8, 23]
1: Plant response rating, Rape [7, 17] | Plant response rating, Soybean [8, 17] | Soybean plant response rating ([8]; Rate 62 g/ha, Postemergence) | Rice plant response rating [14, 27] | S. Flatsedge plant response rating [15, 27]
